Consider five compounds from patent US20140315972A1, “RS)-2-(2-oxo-4-phenylpyrrolidin-1-yl)acetamide compound having modulatory activity with a commensurate effect, pharmaceutical substance (variants) and its application, composition (variants) thereof” (priority 2011, published 2014).

For one data set, the system named is rabbits. The data set can be described thus: Transcallosal stimulation induced potential (TSIP). In kind it is in vivo. Conditions: for effect on TSIP components (in words): 25-300 mg/kg.
Data set [1] can be described thus: Acute toxicity, single intraperitoneal injection in male mice. In kind it is in vivo. The following applies: male, white outbred, mouse, in vivo, ip, male mice 18-24 g; single i.p. The method, then: (§1) Tables 2, 2.1 and 2.2 present the results of acute toxicity studies of the Compounds with active substance content in at least white outbred male mice (body weight 18-24 g) and white outbred rats 30-35 days of age, of both sexes with a single dose. Calculation of toxic doses was made using the Wilcoxon and Litchfield method. Observations were made over 24 hours and 14 days after a single dose.
(§2) LD50 in rat pups after intragastric administration was not found. Intragastric administration to rat pups of doses of more than 1000 mg/kg is technically impossible due to the small volume of the stomach (Table 2.2).

The subject of data set [2] is mice. Conditions: mice; product of SU No 797219; cited from earlier work.
A further data set deals with rats. The data set is described as follows: Acute toxicity, single intragastric administration in immature rats. It is filed as in vivo. Conditions: single intragastric 800 mg/kg. Here is the method:
as §1, §2

Data set [3] deals with mice. The data set is described as follows: Acute toxicity, single intraperitoneal injection in male mice. It is filed as in vivo. Conditions: male mice 18-24 g; single i.p. The method, then:
as §1, §2

Data set [4] has as its system mice. The data set can be described thus: Cross maze exploratory behavior, HEF and LEF mice. In kind it is in vivo. Conditions: i.p. once a day 5 days, Compounds 1 and 4 100 mg/kg, Piracetam 200 mg/kg.
Data set [5] concerns mice. The data set can be described thus: Open field test. It is filed as in vivo. Here is the method: Study of the effect of Phenotropil (100, 200, 300 mg/kg) on motor activity and exploratory behavior by the open field test on mice (16-24 g) in comparison with olanzapine (1 mg/kg) is shown in Tables 5-5.4. Olanzapine at higher doses has sedative activity, so for comparison with Phenotropil, the drug was used only at a dose of 1 mg/kg. The drugs and distilled water to control groups were injected intraperitoneally 40 minutes prior to the study. […] This indicates the ability of the drug to reversibility, unlike olanzapine.

The subject of data set [6] is mice. The data set is described as follows: Apomorphine verticalization (positive symptoms of schizophrenia). In kind it is in vivo. Conditions: mice, apomorphine 2 mg/kg s.c. Here is the method: (§3) Studies have been conducted on white outbred male mice (18-24 g), in comparison with the olanzapine (Zyprexa) with intraperitoneal injection.
In the model of positive symptoms of schizophrenia associated with hyperactivation of the dopamine systems, which allows to identify the ability of substances to block the dopaminergic transmission in the mesolimbic system of the brain, Phenotropil (100, 200, and 300 mg/kg) reduced the apomorphine-induced (2 mg/kg subcutaneously) verticalization intensity scores (Table 4) by 45%, by 2.0 and 2.6 times, respectively.

The subject of data set [7] is mice. The data set can be described thus: Tremor caused by arecoline. It is filed as in vivo.
Source text: as §3

Where [8] appears, read: Piracetam 300-500, Pyritinol 50-150, Phenotropil 25-300 mg/kg.

Like-named read-outs stand apart in the source and are kept apart here. Marks after values point to notes of the source that are not given here.

Take `NC(=O)CN1CC(c2ccccc2)CC1=O` (racemic) [Compound 2, (RS)-2-(2-oxo-4-phenylpyrrolidin-1-yl)acetamide]: the “effect on TSIP components (in words)” value in the data set on rabbits is “less pronounced than that of Compounds 1 and 3”. In addition, in the data set with rabbits (setting [8]), the “TSIP P1 + N1 amplitude” value is reported as “± (biphasic effect, less than 50% but not less than 20%)”; the “TSIP component N1 amplitude” value is “± (biphasic effect, less than 50% but not less than 20%)”; the “TSIP component P1 amplitude” value is listed as “± (biphasic effect, less than 50% but not less than 20%)”; the “TSIP component P2 amplitude” value is listed as “± (biphasic effect, less than 50% but not less than 20%)”. The LD50 at 14 days in [1] came to 1000 mg/kg.

As for `NC(=O)CN1CC(c2ccccc2)CC1=O` (stereo not drawn) [N-carbamoylmethyl-4-phenyl-2-pyrrolidone, reference compound], the LD50 in the data set on mice [2] is 831 mg/kg.

`NC(=O)CN1CC(c2ccccc2)CC1=O` (racemic) [Compound 3, (RS)-2-(2-oxo-4-phenylpyrrolidin-1-yl)acetamide]: in the data set on rats (rats 30-35 days), the Dead/total number is reported as 0/10. In the data set with rats, the “% of dead rat pups” value turned out to be 0%. Moreover, the LD50 with mice [3] is 1050 (984.6-1115.3) mg/kg.

For the compound `NC(=O)CN1CC(c2ccccc2)CC1=O` (racemic) [Compound 4, (RS)-2-(2-oxo-4-phenylpyrrolidin-1-yl)acetamide], in the data set with rabbits, the “effect on TSIP components (in words)” value is listed as “no significant difference from the saline treated control”. Further, in the data set on mice [4] (HEF mice), the “Kt (trigger transmission coefficient)” value is listed as 3.9 ± 0.45, the “Number of compartment explorations” value is recorded as 6.5 ± 0.7 // and the Number of surveillances is recorded as 1.6 ± 0.2. In the data set with mice [4] (LEF mice), the “Kt (trigger transmission coefficient)” value stood at 3.9 ± 0.4, the “Number of compartment explorations” value is given as 7.0 ± 0.6 // and the Number of surveillances was found to be 1.8 ± 0.2. Further, in the data set on mice [4] (population as a whole), the “Kt (trigger transmission coefficient)” value came to 3.9 ± 0.45, the “Number of compartment explorations” value is 6.7 ± 0.7 // and the Number of surveillances came out at 1.7 ± 0.2. This compound also registered an LD50 in the data set with mice [3] of 904 mg/kg.

With `Cc1cc2c(s1)Nc1ccccc1N=C2N1CCN(C)CC1` [Olanzapine, reference compound], in the data set with mice [5] (1 mg/kg), the “effect on number of explorations compared to the control” value is reported as “no effect”; the “increase of number of washes during 1 and 2 minutes” value was 150%; the “increase of number of washes in total” value was 200%; the “reduction of number of rearings” value came to 47%. Moreover, in the data set with mice [5] (1 mg/kg), the “reduction of number of visits to the center, total index” value turned out to be 39% and the “reduction of overall run distance” value worked out at 36%. Further, in the data set with mice [5] (mice, 1 mg/kg i.p.), the “Distance covered during 1st min (horizontal motor activity)” value was 8.3 ± 1.6, the “Distance during 2nd min (horizontal motor activity)” value came to 8.8 ± 0.8, the “Distance during 3rd min (horizontal motor activity)” value worked out at 10.2 ± 0.9 and the “Explorations during 2nd min” value was 0.5 ± 0.2^. In the data set on mice [5] (mice, 1 mg/kg i.p.), the “Explorations during 3rd min” value is 1.0 ± 0.3, the “Number of explorations (holes) during 1st min” value was 0.7 ± 0.2^, the “Number of washings during 1st min” value amounted to 0.5 ± 0.2 and the “Total distance at 3 min (horizontal motor activity)” value is 27.3 ± 2.6. Also, in the data set with mice [5] (mice, 1 mg/kg i.p.), the “Total number of explorations at 3 min” value is recorded as 2.2 ± 0.4^, the “Total number of visits to the center at 3 min” value was found to be 0.7 ± 0.3, the “Total number of washings at 3 min” value came out at 1.2 ± 0.4 and the “Visits to the center during 1st min” value came out at 0 ± 0. Further, in the data set on mice [5] (mice, 1 mg/kg i.p.), the “Visits to the center during 2nd min” value is recorded as 0.5 ± 0.2, the “Visits to the center during 3rd min” value came to 0.2 ± 0.2, the “Washings during 2nd min” value is reported as 0.5 ± 0.2 and the “Washings during 3rd min” value was found to be 0.2 ± 0.2. In the data set on mice [5] (mice, 1 mg/kg i.p.), the “vertical motor activity, 1st min (Distance covered)” value is on record as 0.8 ± 0.3; the “vertical motor activity, 2nd min” value stood at 0.3 ± 0.2; the “vertical motor activity, 3rd min” value was 0.5 ± 0.2; the “vertical motor activity, total at 3 min” value is on record as 1.7 ± 0.4. In the data set on mice [6] (1.0 mg/kg i.p.), the “Intensity of verticalization in points” value is on record as 36 ± 8.7 points. In the data set on mice [6] (10 mg/kg i.p.), the “Intensity of verticalization in points” value is 16.4 ± 8.4*^ points. Also, the “reduction of duration of tremor” value with mice [7] (1 mg/kg) worked out at 57%. Also, in the data set with mice [7] (mice, arecoline 25 mg/kg, 1.0 mg/kg), the Duration of tremor was determined as 178 ± 28 s.
